Key:
[1] = tested on: B16-OVA tumors; experiment: Adjuvant retention in tumors and cancer cells after intratumoral injection; type: in vivo, B6 mice; details: intra-tumoral, 24 hours
Experimental: To validate cell-associating effect of the nanoparticle adjuvant formulation, B6 mice were inoculated subcutaneously with B16-OVA tumors. Nanoparticle-mediated adjuvant retention with the B16 cells was validated using whole body imaging, flow cytometric analysis, and fluorescence microscopy. Dye-labelled STING agonist (2′-[DY-547]-AHC-c-diGMP) was administered in its free form and nanoparticle form intra-tumorally and examined after 24 hours.

[2] = tested on: B16-OVA tumors; experiment: Tumor treatment efficacy of adjuvant plus cisplatin, B16-OVA subcutaneous model; type: in vivo, B6 mice; details: intra-tumoral treatment
Experimental: To study the in vivo efficiency of the treatment modality, B6 mice were inoculated subcutaneously with B16-OVA tumors. When the tumors appeared palpable, they were pre-treated with free cGAMP or cGAMP-loaded nanoparticles prior to chemotherapy by cisplatin (CTTP). 24 hours following intra-tumoral adjuvant administration, the mice were given an intra-tumoral cisplatin injection to induce cell death (FIG. 9(a)). These two groups are designated cGAMP+CTTP and NP+CTTP to differentiate the use of free cGAMP and cGAMP-loaded nanoparticles, respectively. For controls, tumor-bearing mice receiving no treatment (placebo), cistplatin only (CTTP only) and cGAMP-loaded nanoparticles only (NP only) were also prepared. For cGAMP administration, 2.5 μg of the adjuvant was administered in 50 μL of solution. For cisplatin administration, 235 μg of the chemodrug was administered in 100 μL of solution. Following the different treatments, the tumor volumes were monitored over time. […] In contrast, no other group had any tumor with complete regression (FIG. 9(b), (c)). […] With the tumor-free surviving mice from the NP+CTTP group, 4 of them were re-challenged with B16-OVA cells on day 60 and compared to animals that had no prior tumor challenge and treatment.

[3] = Encapsulation efficiency of thin-shell polymeric nanoparticles; type: physicochemical; details: for encapsulation efficiency: cargo in thin-shell hollow PLGA nanoparticles
[4] = In vivo immune potentiation after footpad injection (lymph node IFN-β, serum TNF-α); details: after footpad administration, mice
Experimental: Immune potentiation by the cd-GMP nanoparticles was further compared to free cd-GMP in vivo in mice. 48 hours following footpad injections, the draining popliteal lymph nodes were collected for IFN-β quantification. […] In addition, the systemic level of TNF-α, an indicator of reactogenicity, was also monitored following the footpad administration of free cd-GMP and cd-GMP nanoparticles.

[5] = tested on: HeLa cells; experiment: Association of cGAMP adjuvant with HeLa cells and cisplatin-induced debris (confocal, FACS); type: cell-based

Compound: 2′-[DY-547]-AHC-c-diGMP [free adjuvant]
- adjuvant association within the cancer cells ([1]; flow cytometry and confocal microscopy of extracted cells): little adjuvant retention
- adjuvant retention inside the tumor ([1]; whole body imaging): little adjuvant retention

Compound: N.N.[Cl][Pt][Cl] [CTTP only, cisplatin]
- tumor regression [2]: neither CTTP only nor NP only treatment induced tumor regression

Compound: Nc1nc2c(ncn2[C@@H]2O[C@@H]3COP(=O)(O)O[C@H]4[C@@H](O)[C@H](n5cnc6c(=O)[nH]c(N)nc65)O[C@@H]4COP(=O)(O)O[C@H]3[C@H]2O)c(=O)[nH]1 [cyclic di-GMP]
- encapsulation efficiency [3]: 37%
- encapsulation efficiency ([3]; listed as cd-GMP): about 40%
- cargo molecules per nanoparticle ([3]; loading concentration 8 mM DNA, 50 mg/mL BSA, cd-GMP at about 40% efficiency): approximately 2,000
- serum level of TNF-α (indicator of reactogenicity) [4]: elevated level

Compound: Nc1nc2c(ncn2[C@@H]2O[C@@H]3COP(=O)(O)O[C@H]4[C@@H](O)[C@H](n5cnc6c(N)ncnc65)O[C@@H]4COP(=O)(O)O[C@@H]2[C@@H]3O)c(=O)[nH]1 [free cGAMP, 2′3′-cGAMP]
- capacity to associate with the cells [5]: little capacity

Compound: dye-labelled BSA: dye-labelled bovine serum albumin cargo
- encapsulation efficiency [3]: 35%
